In the NIST ThermoML archive (doi:10.1016/j.jct.2017.08.012):
± gives the expanded uncertainty stated by the source.

Settings: 101.33 kPa, Liquid, Vibrating tube method

mass density (293.15 K): 659.4 ± 4.1 kg/m3
mass density (298.15 K): 654.76 ± 4 kg/m3
mass density (303.15 K): 650.21 ± 4 kg/m3
mass density (308.15 K): 645.43 ± 4 kg/m3
mass density (313.15 K): 640.75 ± 4 kg/m3
Structure (SMILES): CCCCCC [hexane]
